Test results reported in the NIST ThermoML archive (doi:10.1016/j.jct.2016.04.006).

Columns and labels:
[1] = mn = molality of the nth substance listed, in mol/kg; details: 100 kPa, Liquid, Capillary tube (Ostwald / Ubbelohde) method
[2] = 100 kPa, Liquid, Capillary tube (Ostwald / Ubbelohde) method

NCC(=O)O [2-aminoacetic acid] + O
viscosity [mPa·s], [1]
Details	m1 = 0.05	m1 = 0.15	m1 = 0.25	m1 = 0.35	m1 = 0.5
288.15 K	1.146	1.16	1.175	1.19	1.213
298.15 K	0.896	0.909	0.921	0.934	0.953
308.15 K	0.723	0.735	0.745	0.755	0.77
318.15 K	0.603	0.609	0.618	0.626	0.639

C[C@@H](O)[C@@H](O)[C@H](O)[C@H](O)C=O [6-deoxy-D-mannose] + O
viscosity [mPa·s], [1]
Details	m1 = 0.0395	m1 = 0.0753	m1 = 0.1036	m1 = 0.1173	m1 = 0.1403
288.15 K	1.164	1.183	1.2	1.208	1.22
298.15 K	0.91	0.922	0.933	0.945	0.951
308.15 K	0.732	0.744	0.753	0.759	0.766
318.15 K	0.607	0.616	0.623	0.626	0.633

OC[C@H]1O[C@@H](O[C@H]2[C@H](O)[C@@H](O)[C@H](O)O[C@@H]2CO)[C@H](O)[C@@H](O)[C@@H]1O [D-cellobiose] + O
viscosity [mPa·s], [1]
Details	m1 = 0.0529	m1 = 0.0639	m1 = 0.0903	m1 = 0.1292	m1 = 0.1479	m1 = 0.1603
288.15 K	1.193	1.203	1.231	1.269	1.286	1.3
298.15 K	0.928	0.941	0.961	0.99	1.001	1.011
308.15 K	0.748	0.757	0.771	0.796	0.807	0.813
318.15 K	0.621	0.625	0.64	0.657	0.664	0.67

O=C[C@H](O)[C@@H](O)[C@H](O)[C@H](O)CO [D-glucose] + O
viscosity [mPa·s], [1]
Details	m1 = 0.0523	m1 = 0.0745	m1 = 0.0885	m1 = 0.1034	m1 = 0.1197	m1 = 0.142
288.15 K	–	1.183	1.185	1.192	1.205	1.219
298.15 K	0.911	0.921	0.926	0.933	0.938	0.948
308.15 K	0.735	0.743	0.747	0.751	0.756	0.762
318.15 K	0.609	0.614	0.618	0.621	0.625	0.63

OC[C@@H](O)[C@@H](O)[C@H](O)[C@H](O)CO [D-mannitol] + O
viscosity [mPa·s], [1]
Details	m1 = 0.0578	m1 = 0.0701	m1 = 0.0837	m1 = 0.12	m1 = 0.1409	m1 = 0.1659	m1 = 0.1943
288.15 K	1.181	1.19	1.199	1.224	1.236	1.254	1.278
298.15 K	0.919	0.928	0.935	0.949	0.959	0.974	0.986
308.15 K	0.741	0.746	0.753	0.763	0.771	0.779	0.791
318.15 K	0.611	0.617	0.62	0.629	0.636	0.644	0.651

O=C[C@@H](O)[C@@H](O)[C@H](O)[C@H](O)CO [D-mannose] + O
viscosity [mPa·s], [1]
Details	m1 = 0.0607	m1 = 0.0751	m1 = 0.0977	m1 = 0.1215	m1 = 0.134	m1 = 0.1525	m1 = 0.1822
288.15 K	–	1.183	1.195	1.207	1.216	1.224	1.243
298.15 K	–	0.921	0.931	0.94	0.945	0.954	0.966
308.15 K	0.739	0.744	0.749	0.757	0.76	0.767	0.776
318.15 K	0.61	0.614	0.62	0.625	0.629	0.635	0.64

O [water]
[2]
Details	viscosity [mPa·s]
288.15 K	1.138
298.15 K	0.89
308.15 K	0.719
318.15 K	0.596

CO[C@H]1O[C@H](CO)[C@@H](O)[C@H](O)[C@@H]1O [α-methyl mannopyranoside] + O
viscosity [mPa·s], [1]
Details	m1 = 0.0569	m1 = 0.0853	m1 = 0.1142	m1 = 0.1318	m1 = 0.1443
288.15 K	1.172	1.188	1.208	1.217	1.229
298.15 K	0.913	0.925	0.942	0.95	0.96
308.15 K	0.742	0.75	0.756	0.765	0.77
318.15 K	0.61	0.619	0.625	0.633	0.636
